Measured values taken from paper PMC13070491, “Single-nucleus transcriptomics, pharmacokinetics, and pharmacodynamics of CDK4/6 and mTOR inhibition in a Phase 0/1 trial of recurrent high-grade glioma” (Neuro-Oncology, 2025).

Test system: GB126, GB239 and GB86 patient-derived cell lines
Assay: In vitro single-cell RNA sequencing, analyses across the cell lines (pseudobulk differential gene expression, GSEA, non-cycling cells)
Format: cell-based, human
Protocol: Patient-derived glioma stem cell lines (GSCs; GB126, GB86, and GB239) were established from resected GBM tumor tissue. Cell lines were genetically profiled for mutations and copy number aberrations using the IvySeq custom gene panel. […] GB239 was derived from a tumor sample included in this Phase 0 trial (tumor sample: 100-0039). All human GSCs were cultured as described previously.[12]
Following the fifth day of drug exposure, cells were harvested, cryopreserved to be processed at a later point, or immediately processed for single-cell RNA sequencing (10x Genomics, 3’ version 3). The single-cell RNA sequencing data were then processed via cellranger count and Seurat. Briefly, cells were filtered out based on the following criteria: minimum number of genes detected >500 and <10 000 with a maximum percentage of mitochondrial genes set to 10%. Statistical assessment was made between the malignant proportions of each cell state using a 2-sided paired t-test.
Descriptive statistics of the clinical data are included in Table 1. Comparisons between groups were conducted using a 2-sided or paired 2-sided t-test, where indicated. P < .05 was considered significant. Multiple hypothesis test corrections (ie, false discovery rate correction) were applied for snRNAseq pseudobulk differential expression analysis.

Compound: CN(C)C(=O)c1cc2cnc(Nc3ccc(N4CCNCC4)cn3)nc2n1C1CCCC1 [Ribociclib, ribociclib]
- CDK4 gene expression following ribociclib treatment (5 days vs DMSO, single-cell RNAseq): reduced but remained high
- NPC-like proportion, cells not actively cycling (ribociclib vs DMSO 5 days, paired t-test P = 1.4E-06): decrease
- AC-like proportion, cells not actively cycling (ribociclib vs DMSO 5 days, paired t-test P = 2.6E-03): increase
